According to patent publication US10052320B2, “Substituted quinoxalines as FGFR kinase inhibitors” (ASTEX THERAPEUTICS LIMITED, priority 2011, dated 2018):

Key:
[1] = biological target: T1, Ba/F3-Flt3-transfected cells (Homo sapiens, UniProt P36888, cells depend on it, form not given); assay: Ba/F3-Flt3 (minus IL3) cellular proliferation assay, Alamar Blue; assay type: cell-based; details: minus IL3
T1 sequence (P36888 1-993): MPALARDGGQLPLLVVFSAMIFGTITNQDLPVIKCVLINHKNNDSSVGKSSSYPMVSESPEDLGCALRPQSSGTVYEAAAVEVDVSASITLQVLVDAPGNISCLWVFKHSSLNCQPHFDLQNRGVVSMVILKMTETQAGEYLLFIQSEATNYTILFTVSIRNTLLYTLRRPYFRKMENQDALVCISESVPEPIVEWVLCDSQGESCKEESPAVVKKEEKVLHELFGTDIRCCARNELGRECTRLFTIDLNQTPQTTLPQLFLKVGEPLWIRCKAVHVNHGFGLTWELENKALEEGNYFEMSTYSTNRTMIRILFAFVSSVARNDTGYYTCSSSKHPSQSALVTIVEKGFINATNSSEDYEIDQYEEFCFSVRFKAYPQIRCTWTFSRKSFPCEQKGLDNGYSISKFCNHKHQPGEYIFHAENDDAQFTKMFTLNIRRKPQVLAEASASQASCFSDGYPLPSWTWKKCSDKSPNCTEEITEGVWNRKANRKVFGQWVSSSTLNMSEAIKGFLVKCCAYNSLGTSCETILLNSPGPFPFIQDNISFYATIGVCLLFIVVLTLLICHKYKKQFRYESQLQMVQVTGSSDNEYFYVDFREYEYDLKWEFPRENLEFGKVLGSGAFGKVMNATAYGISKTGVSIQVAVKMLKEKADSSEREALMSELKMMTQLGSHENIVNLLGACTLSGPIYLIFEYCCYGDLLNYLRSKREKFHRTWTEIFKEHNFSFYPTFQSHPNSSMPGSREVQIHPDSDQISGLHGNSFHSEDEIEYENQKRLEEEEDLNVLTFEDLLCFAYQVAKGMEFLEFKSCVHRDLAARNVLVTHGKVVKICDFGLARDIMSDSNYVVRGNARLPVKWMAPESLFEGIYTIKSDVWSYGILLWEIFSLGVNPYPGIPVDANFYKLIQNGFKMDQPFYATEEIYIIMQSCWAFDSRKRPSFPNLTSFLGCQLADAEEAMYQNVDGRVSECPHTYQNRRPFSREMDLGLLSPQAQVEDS

[2] = tested on: Ba/F3-FGFR1-transfected cells in the presence of 10 ng/ml murine IL3; assay: Ba/F3-FGFR1 (plus IL3) cellular proliferation counterscreen, Alamar Blue; assay type: cell-based; details: Mus musculus; plus IL3, 384 well; read-out: BAF3-FGFR 1 (PLUS IL3) 384 well pIC50 (converted)
Summary of the method: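 24 h cmpd exposure, 37 °C/5% CO2; phenol red-free RPMI-1640, 10% FBS; 20000 cells/well (384) or 10000 cells/well (96); Alamar Blue (0.15 mM resazurin) 4 h; RFU ex 540/em 590.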

[3] = biological target: Ba/F3-FGFR3-transfected cells (Homo sapiens, UniProt P22607); assay: Ba/F3-FGFR3 (minus IL3) cellular proliferation assay, Alamar Blue; assay type: cell-based; details: minus IL3, 384 well
Sequence of Ba/F3-FGFR3-transfected cells (P22607 whole entry, change not shown): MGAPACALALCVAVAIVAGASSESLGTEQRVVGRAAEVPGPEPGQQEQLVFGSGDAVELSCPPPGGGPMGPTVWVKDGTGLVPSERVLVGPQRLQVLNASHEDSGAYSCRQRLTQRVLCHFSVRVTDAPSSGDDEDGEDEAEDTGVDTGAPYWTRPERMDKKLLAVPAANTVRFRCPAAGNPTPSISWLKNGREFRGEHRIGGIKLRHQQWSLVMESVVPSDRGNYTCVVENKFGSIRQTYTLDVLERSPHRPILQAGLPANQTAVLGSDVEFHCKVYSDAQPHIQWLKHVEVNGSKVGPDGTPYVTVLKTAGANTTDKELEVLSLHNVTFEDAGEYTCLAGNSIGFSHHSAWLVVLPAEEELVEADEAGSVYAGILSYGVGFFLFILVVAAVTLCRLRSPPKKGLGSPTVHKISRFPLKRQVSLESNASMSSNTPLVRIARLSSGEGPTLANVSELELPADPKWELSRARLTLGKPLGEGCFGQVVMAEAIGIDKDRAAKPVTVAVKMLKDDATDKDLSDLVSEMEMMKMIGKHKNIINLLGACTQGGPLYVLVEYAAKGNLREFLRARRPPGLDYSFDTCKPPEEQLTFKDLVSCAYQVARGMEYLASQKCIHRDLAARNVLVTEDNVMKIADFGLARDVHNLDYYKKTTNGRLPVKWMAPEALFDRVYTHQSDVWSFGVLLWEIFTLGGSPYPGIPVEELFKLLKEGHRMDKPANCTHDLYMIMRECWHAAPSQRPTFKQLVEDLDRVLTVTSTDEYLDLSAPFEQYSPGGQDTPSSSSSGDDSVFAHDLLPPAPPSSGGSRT
Summary of the method: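 FGFR3-Ba/F3 cells, 20000/well (384-well) or 10000/well (96-well), phenol red free RPMI + 10% FBS; cpd in DMSO; 24 h, 37 °C/5% CO2; Alamar Blue 4 h; RFU ex540/em590.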

In the case of COc1cc(OC)cc(N(CCO)c2ccc3ncc(-c4ccccc4CCO)nc3c2)c1 [Compound 151], the “BAF3-FLT3 (MIN IL3) 384 well pIC50” value [1] is reported as under 5, the melting point is reported as 133 °C and the IC50 [2] is reported as over 10 µM. For the same compound, the “BAF3-FGFR 3 (MIN IL3) 384 well pIC50” value [3] was 5.11.

With COc1cc(OC)cc(N(CCO)c2ccc3ncc(-c4ccc(N5CCN(C(=O)OC(C)(C)C)CC5)cc4)nc3c2)c1 [Compound 156] the “BAF3-FLT3 (MIN IL3) 384 well pIC50” value [1] was under 5, the melting point was 80 °C and the IC50 [2] was 8.91 µM. For the same compound, the “BAF3-FGFR 3 (MIN IL3) 384 well pIC50” value [3] was 5.79.

With COc1cc(OC)cc(N(CCO)c2ccc3ncc(-c4ccc(N5CCN(C)CC5)nc4)nc3c2)c1 [Compound 163] the “BAF3-FLT3 (MIN IL3) 384 well pIC50” value [1] was 5.32, the melting point was 160 °C and the IC50 [2] was about 10 µM. The “BAF3-FGFR 3 (MIN IL3) 384 well pIC50” value [3] was about 6.14.

In the case of COc1cc(OC)cc(N(CCO)c2ccc3ncc(-c4ccc(N5CCNCC5)nc4)nc3c2)c1 [Compound 165], the “BAF3-FLT3 (MIN IL3) 384 well pIC50” value [1] is reported as 5.38, the melting point is reported as 171 °C and the IC50 [2] is reported as 6.61 µM. For the same compound, the “BAF3-FGFR 3 (MIN IL3) 384 well pIC50” value [3] was 6.12.

In the case of COc1cc(OC)cc(N(CCO)c2ccc3ncc(-c4ccc(N5CCNCC5)cc4)nc3c2)c1 [Compound 166], the “BAF3-FLT3 (MIN IL3) 384 well pIC50” value [1] is reported as 5.46, the melting point is reported as 194 °C and the IC50 [2] is reported as 4.79 µM. The “BAF3-FGFR 3 (MIN IL3) 384 well pIC50” value [3] was about 6.1.

For COc1cc(OC)cc(N(CCNC(C)C)c2ccc3ncc(-n4cnc(COC(C)=O)c4)nc3c2)c1 [Compound 167], the “BAF3-FLT3 (MIN IL3) 384 well pIC50” value [1] was under 5, the melting point was 56 °C and the IC50 [2] was over 10 µM. The “BAF3-FGFR 3 (MIN IL3) 384 well pIC50” value [3] was 7.09.

For COc1cc(OC)cc(N(CCNC(C)C)c2ccc3ncc(-c4ccc(N5CCOCC5)nc4)nc3c2)c1 [Compound 168], the “BAF3-FLT3 (MIN IL3) 384 well pIC50” value [1] was 5.13, the melting point was 135 °C and the IC50 [2] was 7.76 µM. The “BAF3-FGFR 3 (MIN IL3) 384 well pIC50” value [3] was about 7.15.

With COc1cc(OC)cc(N(CCN2CCOCC2)c2ccc3ncc(-c4ccc(N)nc4)nc3c2)c1 [Compound 169] the “BAF3-FLT3 (MIN IL3) 384 well pIC50” value [1] was under 5, the melting point was 164 °C and the IC50 [2] was over 10 µM. For the same compound, the “BAF3-FGFR 3 (MIN IL3) 384 well pIC50” value [3] was 6.19.

With COc1cc(OC)cc(N(CCO)c2ccc3ncc(/C(C)=N/OC(C)(C)C)nc3c2)c1 [Compound 171] the “BAF3-FLT3 (MIN IL3) 384 well pIC50” value [1] was under 5, the melting point was 147 °C and the IC50 [2] was over 10 µM. The “BAF3-FGFR 3 (MIN IL3) 384 well pIC50” value [3] was under 5.

In the case of COc1cc(OC)cc(N(CCO)c2ccc3ncc(C4=CCN(C(=O)OC(C)(C)C)C4)nc3c2)c1 [Compound 173], the “BAF3-FLT3 (MIN IL3) 384 well pIC50” value [1] is reported as under 5, the melting point is reported as 142 °C and the IC50 [2] is reported as over 10 µM. For the same compound, the “BAF3-FGFR 3 (MIN IL3) 384 well pIC50” value [3] was 6.08.

For COc1cc(OC)cc(N(CCO)c2ccc3ncc(C4=CCN(C(=O)OC(C)(C)C)CC4)nc3c2)c1 [Compound 178], the “BAF3-FLT3 (MIN IL3) 384 well pIC50” value [1] was under 5, the melting point was 150 °C and the IC50 [2] was over 10 µM. For the same compound, the “BAF3-FGFR 3 (MIN IL3) 384 well pIC50” value [3] was 6.29.

For COc1cc(OC)cc(N(CCNC(C)C)c2ccc3ncc(C(=O)NCCCN4CCCCC4)nc3c2)c1 [Compound 182], the “BAF3-FLT3 (MIN IL3) 384 well pIC50” value [1] was under 5, the melting point was 121 °C and the IC50 [2] was over 10 µM. For the same compound, the “BAF3-FGFR 3 (MIN IL3) 384 well pIC50” value [3] was 5.64.

With COc1cc(OC)cc(N(CC#Cc2ncccc2OC)c2ccc3ncc(-c4cccnc4)nc3c2)c1 [Compound 183] the “BAF3-FLT3 (MIN IL3) 384 well pIC50” value [1] was 5.04, the melting point was 141 °C and the IC50 [2] was over 10 µM. For the same compound, the “BAF3-FGFR 3 (MIN IL3) 384 well pIC50” value [3] was 7.1.

For COc1cc(OC)cc(N(CCO)c2ccc3ncc(C(=O)Nc4cnn(C)c4)nc3c2)c1 [Compound 184], the “BAF3-FLT3 (MIN IL3) 384 well pIC50” value [1] was under 5, the melting point was 227 °C and the IC50 [2] was over 10 µM. For the same compound, the “BAF3-FGFR 3 (MIN IL3) 384 well pIC50” value [3] was 5.27.
